Assay results: PMC8746970, “Determination of the Peptide AWRK6 in Rat Plasma by Liquid Chromatography-Tandem Mass Spectrometry (LC-MS/MS) and Its Application to Pharmacokinetics” (Molecules, 2021)
Read-outs that look alike come from different tables or passages of the source. No end group written: not given here.

Experiment: Pharmacokinetic study of AWRK6 in rats after intraperitoneal or intravenous injection, plasma LC-MS/MS
Assay type: in vivo, rat
Details: for AUC(0-inf) / Cmax / Tmax / CL/F / MRT / Vd/F / half-life / AUC(0-t) / bioavailability: rat; for CL/F: read-out: CLz/F (converted); for MRT: read-out: MRT(0–t); for Vd/F: read-out: Vz/F; for half-life: read-out: t1/2z (converted); for bioavailability: from AUC, read-out: F (absolute bioavailability)
Method: The samples were analyzed on a LC-MS/MS system consisting of an Agilent 1290 Infinity II UHPLC System coupled with an Agilent 6460 Triple Quadrupole Mass Spectrometer with an electrospray ionisation source (ESI). The Agilent MassHunter Workstation Qualitative Analysis B.06.00 (Agilent Technologies, Santa Clara, CA, USA) software was used. Chromatographic separation was performed on a Supersil ODS2 column (4.6 mm × 250 mm, 5 μm, Dalian Elite Analytical Instruments, Dalian, China). The separation conditions were 30 °C by using a FA-ACN (0.1:99.9, v/v, A) and FA-water (0.1:99.9, v/v, B) solutions at a flow rate of 0.5 mL/min. The sample injection volume was 20 μL and the autosampler was kept at 4 °C. The initial eluent A-B (20:80, v/v) was changed to A-B (30:70, v/v) in 4 min and subsequently changed to A-B (90:10, v/v) in the next 3 min in a linear gradient form and maintained at this ratio for another 1 min. PMB was used as the IS. MS analysis was carried out in the multiple reaction monitoring (MRM) mode with following operation parameters: capillary voltage, 3.5 kV; gas temperature, 325 °C; nebulizer gas pressure, 35 psi; sheath gas, 11 L/min, 350 °C; fragmentor voltages, 155 V for AWRK6 and 75 V for IS; collision energy (CE), 80 eV for AWRK6 and 40 eV for IS; precursor-to-product ion transition, m/z: 533.3→84.1 for AWRK6 and m/z: 402.1→101.1 for IS.
The AWRK6 and IS were dissolved in water at 1.0 mg/mL for stock solution. The AWRK6 calibration standards at 0.05, 0.1, 0.5, 1, 2, 5, and 10 μg/mL were prepared by mixing 50 μL of working solution and 100 μL of blank plasma individually. QC samples of AWRK6 at 0.1, 0.5, and 5 μg/mL were prepared by the same method. The thawed plasma samples (100 μL) were mixed with 50 μL water (or QC), 50 μL IS (1 μg/mL), and 20 μL FA-water (25:75, v/v). A combination of plasma precipitation and liquid–liquid extraction was applied for the extraction of AWRK6 in samples. After adding 200 μL methanol and 100 μL dichloromethane, the mixtures were vortexed for 30 s and centrifuged at 14,000 g for 10 min. The supernatant was filtered by 0.22 μm membrane for LC-MS/MS analysis.
SPF-grade male Sprague Dawley rats (280–320 g, 8 weeks old) were purchased from Liaoning Changsheng Biotechology (Liaoning, China). The rats were housed under a controlled environment (temperature: 25 ± 2 °C; relative humidity: 55 ± 10%; alternating natural light/dark cycles) with free access to food and water unless otherwise noted. The study was approved by the Laboratory Animal Welfare and Ethical Review Board of China Medical University (CMU2019089, 8 March 2019). According to the previous study, the rats was administrated with AWRK6 dissolved in saline intraperitoneally at 2.35, 4.7, and 9.4 mg/kg bodyweight and intravenously at 4.7 mg/kg after being fasted for 12 h. The intravenous doing was administered via the tail vein of the rats. Blood samples were collected from orbital venous plexus at 0.083, 0.167, 0.25, 0.5, 1, 1.5, 2, 3, 4, 6, 8, and 10 h using heparin tubes after administration, followed by centrifugation at 4000 g for 10 min at 4 °C and storage at −80 °C. The obtained data were analyzed using DAS 2.0 software (Anhui Provincial Center for Drug Clinical Evaluation). The absolute bioavailability of AWRK6 for intraperitoneal administration was calculated by the following formula:(1) F=AUCi.p.×Di.v./Di.p.×AUCi.v.×100%

[1] = male Sprague Dawley rats, single i.v. 4.700 mg/kg (tail vein), plasma, LC-MS/MS, mean ± SD, n = 6
[2] = ip, 2.35 mg/kg, male Sprague Dawley rats, single i.p. 2.350 mg/kg, plasma, LC-MS/MS, mean ± SD, n = 6
[3] = ip, 4.7 mg/kg, male Sprague Dawley rats, single i.p. 4.700 mg/kg, plasma, LC-MS/MS, mean ± SD, n = 6
[4] = ip, 9.4 mg/kg, male Sprague Dawley rats, single i.p. 9.400 mg/kg, plasma, LC-MS/MS, mean ± SD, n = 6
[5] = iv, 4.7 mg/kg, male Sprague Dawley rats, single i.v. 4.700 mg/kg (tail vein), plasma, LC-MS/MS, mean ± SD, n = 6
[6] = rats, two-compartment model, weight coefficient of 1, DAS 2.0

- VRT(0–t) (male Sprague Dawley rats, single i.p. 2.350 mg/kg, plasma, LC-MS/MS, mean ± SD, n = 6): 2.549 ± 1.480 h^2
- VRT(0–t) (male Sprague Dawley rats, single i.p. 4.700 mg/kg, plasma, LC-MS/MS, mean ± SD, n = 6): 3.859 ± 0.904 h^2
- VRT(0–t) (male Sprague Dawley rats, single i.p. 9.400 mg/kg, plasma, LC-MS/MS, mean ± SD, n = 6): 4.366 ± 1.439 h^2
- CLz/F [1]: 28.32 ± 3.65 mL/min/kg
- Vz/F [1]: 4.884 ± 1.736 L/kg
- AUC(0-inf) [2]: 851 ± 221 ng·h/mL
- Cmax [2]: 217 ± 10 ng/mL
- Tmax [2]: 1.17 ± 0.258 h
- CL/F [2]: 48 mL/min/kg
- MRT [2]: 2.26 ± 0.488 h
- Vd/F [2]: 10.9 ± 3.96 L/kg
- half-life [2]: 2.95 ± 2.05 h
- AUC(0-inf) [3]: 1590 ± 275 ng·h/mL
- AUC(0-t) [3]: 1360 ± 176 ng·h/mL
- Cmax [3]: 454 ± 48 ng/mL
- Tmax [3]: 1.25 ± 0.274 h
- CL/F [3]: 50.6 mL/min/kg
- MRT [3]: 2.49 ± 0.227 h
- Vd/F [3]: 12.3 ± 4.85 L/kg
- half-life [3]: 2.94 ± 1.4 h
- AUC(0-inf) [4]: 2910 ± 356 ng·h/mL
- AUC(0-t) [4]: 2630 ± 236 ng·h/mL
- Cmax [4]: 888 ± 46 ng/mL
- Tmax [4]: 1.21 ± 0.217 h
- CL/F [4]: 54.4 mL/min/kg
- MRT [4]: 2.52 ± 0.292 h
- Vd/F [4]: 12.7 ± 3.37 L/kg
- half-life [4]: 2.78 ± 1.02 h
- AUC(0-inf) [5]: 2800 ± 333 ng·h/mL
- AUC(0-t) [5]: 2600 ± 277 ng·h/mL
- Cmax [5]: 2130 ± 174 ng/mL
- MRT [5]: 1.73 ± 0.261 h
- half-life [5]: 1.98 ± 0.583 h
- bioavailability (plasma, ip, 2.35 mg/kg, male Sprague Dawley rats, i.p. 2.350 mg/kg versus i.v. 4.700 mg/kg): 48.8%
- bioavailability (plasma, ip, 4.7 mg/kg, male Sprague Dawley rats, i.p. 4.700 mg/kg versus i.v. 4.700 mg/kg): 52.5%
- bioavailability (plasma, ip, 9.4 mg/kg, male Sprague Dawley rats, i.p. 9.400 mg/kg versus i.v. 4.700 mg/kg): 50.6%
- time after which plasma concentration was below the LLOQ (rats, after intraperitoneal injection, LLOQ 0.050 μg/mL): ~10 h
- time at which AWRK6 in plasma was cleared (rats, after intravenous injection 4.7 mg/kg): about 10 h
- time at which AWRK6 concentrations in rat plasma peaked (rats, intraperitoneal injections at 2.35, 4.7 and 9.4 mg/kg bodyweight): about 1.2 h
- transport rate constant K12 [6]: 2.55 h⁻¹
- transport rate constant K21 [6]: 1.67 h⁻¹
Substance: SWVGKHGKKFGLKKHKKH-NH2 (C-terminus assumed) [AWRK6]
